Experimental data published in patent US6852734B2, “Indole derivatives exhibiting chymase-inhibitory activities and process for preparation thereof” (Meiji Seika Kaisha, Ltd., priority 2000, dated 2005).

Key:
[1] = biological target: T1, active-type human chymase (Homo sapiens, UniProt P23946); test: Chymase inhibitory activity (Test Example 1; hydrolysis of succinyl-alanyl-histidyl-prolyl-phenylalanyl-p-nitroanilide, absorbance at 405 nm); type: biochemical; conditions: recombinant active-type human chymase, 0.5 mM p-nitroanilide substrate, Buffer A pH 8.0, room temperature, 5 minutes; read-out: Chymase inhibitory activity IC50 (molar concentration)
T1 construct: made in house
T1 sequence (P23946 22-247): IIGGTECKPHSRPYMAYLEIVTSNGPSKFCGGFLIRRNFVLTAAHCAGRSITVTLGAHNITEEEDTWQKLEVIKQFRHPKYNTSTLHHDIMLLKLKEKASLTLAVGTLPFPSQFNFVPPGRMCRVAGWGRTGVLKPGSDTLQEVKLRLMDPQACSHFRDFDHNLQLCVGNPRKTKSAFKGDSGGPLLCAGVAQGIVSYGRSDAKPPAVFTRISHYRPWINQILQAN
Protocol: • (a) The preparation of the enzyme chymase was carried out as follows. That is, a recombinant pro-type human chymase to be used had been prepared in accordance with the method of Urata et al's report [“J. Biol. Chem.”, Vol.266, p.17173 (1991)]. Further, the chymase product as preliminarily purified was activated in accordance with the method of Murakami et al's report [“J. Biol. Chem.”, Vol.270, p.2218 (1991)]. The resulting activated chymase product was purified with heparin Sepharose to afford an active-type human chymase. • (b) To 50 μl of Buffer A (comprising 0.5-3.0M NaCl and 50 mM tris-HCl, pH 8.0) containing 1-5 ng of the active-type human chymase as obtained by the above-mentioned methods, was added 2 μl of a solution in […] which contained an indole derivative of this invention as the substance to be tested. Then, to the resultant mixture, there was added 50 μl of Buffer A containing 0.5 mM of succinyl-alanyl-histidyl-prolyl-phenylalanyl-p-nitroanilide (a product of Backem Co.) as the substrate. The resulting reaction mixture was incubated at room temperature for 5 minutes. The chymase inhibitory activity was assessed by measuring the changes in the absorbance of a light at 405 nm of the resulting reaction solution with the passage of time. The chymase inhibitory activity of the indole derivatives tested of this invention was evaluated in term of IC50 values (in molar concentration, M).
The indole derivatives of this invention as tested in this Example are the compounds of Compound No. 003, 021, 026, 027, 030, 076 and 078 shown in Table 1 above.

[2] = biological target: T2, chymase (Homo sapiens, UniProt P23946); conditions: confirmed in PCT/JP99/06738 (WO 00/32587); cited from earlier work
T2 sequence (P23946 22-247): T1 sequence (P23946 22-247)

SMILES	IC50 [1] [nM]	chymase inhibitory activity (in words) [2]
Cn1c(=O)c(C(c2cccc(F)c2)c2[nH]c3ccccc3c2CCNC(=O)c2cc(C(F)(F)F)cc(C(F)(F)F)c2)c(O)c2ccccc21 (stereo not shown) [compound 003]	2.64	
Cn1c(=O)c(Cc2[nH]c3ccccc3c2CCO)c(O)c2ccccc21 [SF2809-III]		has a chymase inhibitory activity
CC(=O)NCCc1c(C(c2ccc(O)cc2)c2c(O)c3ccccc3n(C)c2=O)[nH]c2ccccc12 (stereo not shown) [SF2809-II]		has a chymase inhibitory activity
CC(=O)NCCc1c(C(c2ccccc2)c2c(O)c3ccccc3n(C)c2=O)[nH]c2ccccc12 (stereo not shown) [SF2809-V]		has a chymase inhibitory activity
Cn1c(=O)c(C(c2ccc(O)cc2)c2[nH]c3ccccc3c2CCO)c(O)c2ccccc21 (stereo not shown) [SF2809-IV]		has a chymase inhibitory activity
Cn1c(=O)c(C(c2ccc(OC(F)(F)F)cc2)c2[nH]c3ccccc3c2CCOC(=O)c2ccccc2)c(O)c2ccccc21 (stereo not shown) [Compound No. 030]	0.587	
CC(=O)OCCc1c(C(c2cccc(Br)c2)c2c(O)c3ncsc3n(C)c2=O)[nH]c2ccccc12 (stereo not shown) [Compound No. 076]	0.893	
CC(=O)NCCc1c(Cc2c(O)c3ccccc3n(C)c2=O)[nH]c2ccccc12 [SF2809-I]		has a chymase inhibitory activity
Cn1c(=O)c(C(c2cccc(Br)c2)c2[nH]c3ccccc3c2CCNS(=O)(=O)c2ccc3ccccc3c2)c(O)c2ccccc21 (stereo not shown) [Compound No. 026]	0.439	
COc1ccc(C(=O)OCCc2c(C(c3ccc(C(F)(F)F)cc3)c3c(O)c4ccccc4n(C)c3=O)[nH]c3ccccc23)cc1OC (stereo not shown) [Compound No. 021]	1.4	
CC(=O)NCCc1c(C(c2ccccc2OC(C)=O)c2c(O)c3ccccc3n(C)c2=O)[nH]c2ccccc12 (stereo not shown) [Compound No. 078]	1.86	
Cn1c(=O)c(C(c2ccccc2)c2[nH]c3ccccc3c2CCO)c(O)c2ccccc21 (stereo not shown) [SF2809-VI]		has a chymase inhibitory activity
Cn1c(=O)c(C(c2ccc(OC(F)(F)F)cc2)c2[nH]c3ccccc3c2CCNS(=O)(=O)c2ccc3ccccc3c2)c(O)c2ccccc21 (stereo not shown) [Compound No. 027]	5.11	
